# Entries after “also recorded” stand apart in the source; their conditions may differ.
# Columns and labels:
# Assay type in all cases: biochemical
# [1] = target: T1, human 15-PGDH (Homo sapiens, UniProt P15428); experiment: qHTS and 24-point re-test: fluorescence assay of NAD+ reduction to NADH on PGE2 oxidation (PubChem AID 894); settings: read-out: qHTS IC50
# T1 construct: comprising residues 3–256 of the human HPGD gene (GenBank identifier: 1203982); His6 (GHHHHHH, behind the TEV site) (C, cleaved yes); made in house; host or cells: E. coli BL21(DE3)-R3
# T1 sequence (P15428 3-256): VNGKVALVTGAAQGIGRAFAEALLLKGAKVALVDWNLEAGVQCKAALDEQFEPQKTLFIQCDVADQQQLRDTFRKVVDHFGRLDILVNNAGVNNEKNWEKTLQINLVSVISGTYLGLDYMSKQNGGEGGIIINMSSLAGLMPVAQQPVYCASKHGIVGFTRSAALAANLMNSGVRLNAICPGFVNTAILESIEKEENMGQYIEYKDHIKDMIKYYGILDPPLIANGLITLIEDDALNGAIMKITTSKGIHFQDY
# Method in brief: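 NADH fluorescence (ex 340/em 450 nm) followed kinetically over a 2-min initial rate. Data normalized to no-enzyme and no-compound controls; four-parameter Hill fit.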
# [2] = target: T1, human 15-PGDH; experiment: Compound titrations of re-synthesized inhibitors in the kinetic assay; settings: 10 nM 15-PGDH, 30 µM PGE2, 200 µM NAD+, 25°C, lower percent substrate conversion; read-out: IC50, re-synthesized compounds
# Description: (§1) Kinetic studies were performed in 100 mM Tris buffer pH 8.0, containing 0.01% Tween-20 and 10 nM 15-PGDH enzyme. […] All inhibitor compounds were dissolved in 10% (v/v) DMSO at varying concentrations from which they were applied at 1∶5 ratio (resulting in a final concentration of 2% (v/v) DMSO in all assays). For each experiment an aliquot of purified enzyme was thawed freshly and pre-diluted to 10 µM in buffer I (5 mM Tris/HCl, pH 8.0, 150 mM NaCl, 0.01% Tween-20). All experiments were performed in white 384-well PCR microplates (Bio-Rad Laboratories, Inc.) in final assay volumes of 20 µL. Twelve-point compound titrations were set up from serially diluted stock solutions in 10% (v/v) DMSO. […] The initial rates recorded in compound titrations were plotted against -log[compound], and non-linear regression (Levenberg-Marquardt) fitting of the dose-response curve to the Hill equation [47] was performed to derive the IC50, using PRISM 5.0 (GraphPad Software, Inc.). For substrate/cofactor titrations, curves with initial rates plotted against the concentration of substrate or cofactor were fitted to the Michaelis-Menten equation, to derive maximal activities, V max, and Michaelis constants, K m. Fitting qualities were judged from the goodness of fit (R^2>0.98).
# [3] = target: T1, human 15-PGDH; experiment: Substrate (PGE2) and cofactor (NAD+) titrations, mechanism of action, global fitting; settings: for Competitive (CM), fit residual Chi^2 value / Mixed-mode (MM), fit residual Chi^2 value / Noncompetitive (NM), fit residual Chi^2 value / Uncompetitive (UM), fit residual Chi^2 value: global fitting; for Titration of NAD^+ K m / Titration of NAD^+ V max [µmol/(min×mg)] / Titration of NAD^+ k cat/K m[×10^6] / Titration of NAD^+ k cat[1/sec]: 30 µM PGE2
# Description: as §1
# [4] = NAD+ titration, inhibitor 20 nM
# [5] = PGE2 titration, inhibitor 10 nM
smiles,measurement,setting,value
"Cc1cccc(-n2cnc3cc(C(=O)N4CCCCC4)ccc32)c1 [Compound 13, [1-(3-methylphenyl)-1H-benzimidazol-5-yl)(piperidin-1-yl)methanone]",IC50,[1],0.056 µM
same,IC50,[2],0.0079 ± 0.0008 µM
same,decrease of K m for NAD+,[3]; [4],~45%
same,decrease of V max,[3]; [4],approximately 60%
same,"Sum-of-squares F-test p, UM vs. MM",[3]; NAD^+ titration,UM vs. MM:p = 0.0654
same,"Sum-of-squares F-test p, NM vs. MM",[3]; PGE2 titration,NM vs. MM:p = 0.0017
same,"Sum-of-squares F-test p, UM vs. MM",[3]; PGE2 titration,UM vs. MM:p = 0.0133
same,decrease of V max,[3]; [5],25%
same,V max relative to no inhibitor,"[3]; PGE2 titration, inhibitor 20 nM, in words",less than half
same,Preferred mode of inhibition,"[3]; PGE2 titration, rejection threshold p = 0.05","MM (MM, mixed-mode inhibition)"
same,"Competitive (CM), fit residual Chi^2 value",[3]; NAD^+ titration,0.8764
same,"Mixed-mode (MM), fit residual Chi^2 value",[3]; NAD^+ titration,0.9675
same,"Noncompetitive (NM), fit residual Chi^2 value",[3]; NAD^+ titration,0.9655
same,"Uncompetitive (UM), fit residual Chi^2 value",[3]; NAD^+ titration,0.9664
same,"Competitive (CM), fit residual Chi^2 value",[3]; PGE2 titration,0.8669
same,"Mixed-mode (MM), fit residual Chi^2 value",[3]; PGE2 titration,0.9797
same,"Noncompetitive (NM), fit residual Chi^2 value",[3]; PGE2 titration,0.9777
same,"Uncompetitive (UM), fit residual Chi^2 value",[3]; PGE2 titration,0.9784
same,mode of inhibition with respect to the cofactor NAD+,[3]; in words,uncompetitively
same,mode of inhibition with respect to the substrate PGE2,[3]; in words,"noncompetitive, uncompetitive or mixed-modes; also recorded: noncompetitively or in a mixed-type mode"
same,Titration of PGE2 K m,[3]; inhibitor 10.0 nM,3.7 ± 0.5 µM
same,Titration of PGE2 V max[µmol/(min×mg)],[3]; inhibitor 10.0 nM,21.3 µmol/min/mg
same,Titration of PGE2 k cat/K m[×10^6],[3]; inhibitor 10.0 nM,2.8 ×10^6
same,Titration of PGE2 k cat[1/sec],[3]; inhibitor 10.0 nM,10.3 ± 0.3 s⁻¹
same,Titration of NAD^+ K m,[3]; inhibitor 10.0 nM,10.7 ± 0.6 µM
same,Titration of NAD^+ V max [µmol/(min×mg)],[3]; inhibitor 10.0 nM,17.5 µmol/min/mg
same,Titration of NAD^+ k cat/K m[×10^6],[3]; inhibitor 10.0 nM,0.8 ×10^6
same,Titration of NAD^+ k cat[1/sec],[3]; inhibitor 10.0 nM,8.5 ± 0.1 s⁻¹
same,Titration of PGE2 K m,[3]; inhibitor 20.0 nM,2.8 ± 0.4 µM
same,Titration of PGE2 V max[µmol/(min×mg)],[3]; inhibitor 20.0 nM,12.6 µmol/min/mg
same,Titration of PGE2 k cat/K m[×10^6],[3]; inhibitor 20.0 nM,2.1 ×10^6
same,Titration of PGE2 k cat[1/sec],[3]; inhibitor 20.0 nM,6.1 ± 0.2 s⁻¹
same,Titration of NAD^+ K m,[3]; inhibitor 20.0 nM,8.9 ± 0.8 µM
same,Titration of NAD^+ V max [µmol/(min×mg)],[3]; inhibitor 20.0 nM,8.2 µmol/min/mg
same,Titration of NAD^+ k cat/K m[×10^6],[3]; inhibitor 20.0 nM,0.4 ×10^6
same,Titration of NAD^+ k cat[1/sec],[3]; inhibitor 20.0 nM,4.0 ± 0.1 s⁻¹
Cc1cc(-c2nnc3n2CCCCC3)c(C)n1-c1ccccc1 [Compound 72],IC50,[1],0.089 µM
same,IC50,[2],0.015 ± 0.0012 µM
same,"Sum-of-squares F-test p, NM vs. MM",[3]; PGE2 titration,NM vs. MM:p = 0.3515
same,effect on the K m,"[3]; PGE2 titration, in words",no effect
same,decrease of V max,[3]; [5],approximately 50%
same,"Competitive (CM), fit residual Chi^2 value",[3]; PGE2 titration,0.9299
same,"Mixed-mode (MM), fit residual Chi^2 value",[3]; PGE2 titration,0.9736
same,"Noncompetitive (NM), fit residual Chi^2 value",[3]; PGE2 titration,0.9734
same,"Uncompetitive (UM), fit residual Chi^2 value",[3]; PGE2 titration,0.9680
same,mode of inhibition with respect to the substrate PGE2,[3]; in words,noncompetitive or mixed-type
same,Titration of PGE2 K m,[3]; inhibitor 4.0 nM,5.6 ± 1.1 µM
same,Titration of PGE2 V max[µmol/(min×mg)],[3]; inhibitor 4.0 nM,22.8 µmol/min/mg
same,Titration of PGE2 k cat/K m[×10^6],[3]; inhibitor 4.0 nM,2.0 ×10^6
same,Titration of PGE2 k cat[1/sec],[3]; inhibitor 4.0 nM,11.1 ± 0.5 s⁻¹
same,Titration of PGE2 K m,[3]; inhibitor 10.0 nM,6.4 ± 0.6 µM
same,Titration of PGE2 V max[µmol/(min×mg)],[3]; inhibitor 10.0 nM,15.4 µmol/min/mg
same,Titration of PGE2 k cat/K m[×10^6],[3]; inhibitor 10.0 nM,1.2 ×10^6
same,Titration of PGE2 k cat[1/sec],[3]; inhibitor 10.0 nM,7.5 ± 0.2 s⁻¹

# — article PMC2970562, “High-Affinity Inhibitors of Human NAD^+-Dependent 15-Hydroxyprostaglandin Dehydrogenase: Mechanisms of Inhibition and Structure-Activity Relationships” (PLoS ONE, 2010)
